Laboratory results reported in ChEMBL document CHEMBL4229414, “Design and synthesis of bridged piperidine and piperazine isosteres” (Bioorg Med Chem Lett, 2018).

What was measured:
hERG (KCNH2) [1] = molecular target: T1, hERG (KCNH2) (Homo sapiens, UniProt Q12809); assay: (§1) Inhibition of human ERG at 1 uM relative to control
hERG (KCNH2) [2] = molecular target: T1, hERG (KCNH2); assay: (§2) Inhibition of human ERG at 10 uM relative to control
[3] = molecular target: D(2) dopamine receptor (Homo sapiens) (UniProt P14416); assay: Agonist activity at human D2L receptor expressed in CHOK1 cells assessed as inhibition of receptor response at 0.1 uM by calcium flux assay relative to control; assay type: functional, cell-based
Sequence of D(2) dopamine receptor (Homo sapiens) (P14416 whole entry): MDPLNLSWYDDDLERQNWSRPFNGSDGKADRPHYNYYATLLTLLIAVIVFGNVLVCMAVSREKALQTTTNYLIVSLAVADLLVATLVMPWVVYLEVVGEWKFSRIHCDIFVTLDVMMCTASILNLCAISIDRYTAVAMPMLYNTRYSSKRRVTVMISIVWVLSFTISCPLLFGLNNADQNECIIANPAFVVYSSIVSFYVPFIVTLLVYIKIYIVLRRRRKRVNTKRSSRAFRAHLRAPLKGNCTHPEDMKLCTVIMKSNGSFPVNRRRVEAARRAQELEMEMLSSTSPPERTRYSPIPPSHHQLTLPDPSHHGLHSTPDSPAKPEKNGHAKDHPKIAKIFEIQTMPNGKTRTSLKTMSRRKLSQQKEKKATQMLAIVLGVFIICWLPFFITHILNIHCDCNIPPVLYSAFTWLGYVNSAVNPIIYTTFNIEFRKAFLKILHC

[4] = Efflux ratio of permeability in human Caco2 cells; assay type: ADME, cell-based; settings: caco-2
[5] = Stability in mouse microsomes; assay type: ADME, Microsome; further: time not given here
[6] = molecular target: D(2) dopamine receptor (Homo sapiens) (UniProt P14416); assay: Antagonist activity at human D2L receptor expressed in CHOK1 cells assessed as inhibition of dopamine-induced calcium flux at 10 uM by fluorescence assay relative to control; assay type: functional, cell-based
Homo sapiens [7] = species on record: Homo sapiens; assay: Agonist activity at recombinant human D4.4 expressed in CHOK1 cells assessed as inhibition of receptor response at 0.1 uM by HTRF based cAMP assay relative to control; assay type: cell-based
[8] = Stability in human microsomes; assay type: ADME, Microsome; further: time not given here
[9] = Stability in rat microsomes; assay type: ADME, Microsome; further: time not given here
[10] = Passive permeability in human Caco2 cells; assay type: ADME, cell-based; settings: caco-2
Homo sapiens [11] = species on record: Homo sapiens; assay: Agonist activity at recombinant human D4.4 expressed in CHOK1 cells assessed as inhibition of receptor response at 10 uM by HTRF based cAMP assay relative to control; assay type: cell-based
hERG (KCNH2) [12] = molecular target: T1, hERG (KCNH2); assay: (§3) Inhibition of human ERG at 3 uM relative to control
[13] = molecular target: D(2) dopamine receptor (Homo sapiens) (UniProt P14416); assay: Antagonist activity at human D2L receptor expressed in CHOK1 cells assessed as inhibition of dopamine-induced calcium flux at 0.1 uM by fluorescence assay relative to control; assay type: functional, cell-based
[14] = molecular target: D(2) dopamine receptor (Homo sapiens) (UniProt P14416); assay: Agonist activity at human D2L receptor expressed in CHOK1 cells assessed as inhibition of receptor response at 10 uM by calcium flux assay relative to control; assay type: functional, cell-based
[15] = molecular target: T2, Voltage-gated inwardly rectifying potassium channel KCNH2 (Homo sapiens, UniProt Q12809); assay: as §1; settings: 1 µM
T2 sequence (Q12809 whole entry): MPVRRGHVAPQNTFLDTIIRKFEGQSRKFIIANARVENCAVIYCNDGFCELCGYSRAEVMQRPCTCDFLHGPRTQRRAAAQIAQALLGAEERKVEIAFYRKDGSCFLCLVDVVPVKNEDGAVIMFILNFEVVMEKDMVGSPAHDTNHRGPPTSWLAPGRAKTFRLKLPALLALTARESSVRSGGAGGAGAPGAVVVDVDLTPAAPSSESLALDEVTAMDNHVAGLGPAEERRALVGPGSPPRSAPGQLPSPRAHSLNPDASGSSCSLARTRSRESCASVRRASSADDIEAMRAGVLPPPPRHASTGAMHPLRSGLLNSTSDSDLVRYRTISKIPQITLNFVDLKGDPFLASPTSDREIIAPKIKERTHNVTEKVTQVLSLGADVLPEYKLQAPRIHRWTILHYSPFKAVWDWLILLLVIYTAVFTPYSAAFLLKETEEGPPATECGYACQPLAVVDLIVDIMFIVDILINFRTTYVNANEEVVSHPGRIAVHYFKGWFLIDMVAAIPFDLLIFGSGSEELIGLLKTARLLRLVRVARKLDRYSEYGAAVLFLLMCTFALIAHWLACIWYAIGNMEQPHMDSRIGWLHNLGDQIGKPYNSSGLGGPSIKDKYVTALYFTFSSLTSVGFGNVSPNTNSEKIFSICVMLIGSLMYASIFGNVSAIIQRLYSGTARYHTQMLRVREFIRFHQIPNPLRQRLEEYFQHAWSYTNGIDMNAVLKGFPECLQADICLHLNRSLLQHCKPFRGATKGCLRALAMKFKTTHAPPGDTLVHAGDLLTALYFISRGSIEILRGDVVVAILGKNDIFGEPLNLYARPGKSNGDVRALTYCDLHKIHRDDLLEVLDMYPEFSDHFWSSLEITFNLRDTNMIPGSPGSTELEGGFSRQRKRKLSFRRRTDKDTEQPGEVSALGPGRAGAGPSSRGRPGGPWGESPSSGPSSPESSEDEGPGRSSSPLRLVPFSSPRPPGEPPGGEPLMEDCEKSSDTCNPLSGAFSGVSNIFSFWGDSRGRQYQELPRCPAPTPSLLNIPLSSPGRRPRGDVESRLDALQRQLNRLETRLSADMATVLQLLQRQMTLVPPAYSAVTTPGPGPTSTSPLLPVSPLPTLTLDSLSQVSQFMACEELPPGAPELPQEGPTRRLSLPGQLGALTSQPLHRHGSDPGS

[16] = molecular target: T2, Voltage-gated inwardly rectifying potassium channel KCNH2; assay: as §3; settings: 3 µM
[17] = molecular target: T2, Voltage-gated inwardly rectifying potassium channel KCNH2; assay: as §2; settings: 10 µM

T1 sequence (Q12809 whole entry): as above

SMILES	inhibition at 1 µM (hERG (KCNH2) [1]) [%]	inhibition at 10 µM (hERG (KCNH2) [2]) [%]	inhibition [3] [%]	efflux ratio [4]	Stability [5] [%]	inhibition [6] [%]	inhibition (Homo sapiens [7]) [%]	Stability [8] [%]	Stability [9] [%]	permeability [10] [%]	inhibition (Homo sapiens [11]) [%]	inhibition at 3 µM (hERG (KCNH2) [12]) [%]	inhibition [13] [%]	inhibition [14] [%]	inhibition (INH) [15] [%]	inhibition (INH) [16] [%]	inhibition (INH) [17] [%]	Ratio [4]
CCCN1[C@H]2CC[C@H]1CC(c1ccc(OC)cc1)C2 (relative stereo)	58	93	-1	3	5	9	9	8	2	100	21	78	0	40	–	–	–	–
CCCN1C[C@H]2OC[C@@H]1C[C@@]2(O)c1ccccc1OC	3	6	25	3	18	4	4	66	53	100	15	4	4	16	–	–	–	–
CCCN1[C@H]2CC[C@H]1CC(c1ccccc1OC)C2 (relative stereo; 8a) [listing 1 of 2 here]	–	74	–	2.9	3	–	–	25	2	100	–	–	–	–	22	46	–	–
CCCN1[C@H]2CC[C@H]1CC(c1cccc(OC)c1)C2 (relative stereo)	30	81	9	2.6	3	13	4	4	2	100	16	54	12	32	–	–	–	–
CCCN1[C@H]2CC[C@H]1CC(c1ccccc1OC)C2 (relative stereo; 4) [listing 1 of 2 here]	–	–	8	–	–	22	10	–	–	–	11	–	19	0	–	–	–	–
CCCN1CCC(c2ccccc2OC)CC1	2	14	52	1	30	14	9	86	4	100	12	5.5	-7	99	–	–	–	–
CCCN1[C@H]2COC[C@H]1CC(c1ccccc1OC)C2 (relative stereo; 20) [listing 1 of 2 here]	–	–	–	2.3	2	–	–	42	1	100	–	34	–	–	17	–	64	–
CCCN1[C@H]2COC[C@H]1CC(c1ccccc1OC)C2 (relative stereo; 20) [listing 2 of 2 here]	–	–	22	–	–	12	14	–	–	–	–	–	10	30	–	–	–	–
CCCN1[C@H]2CC[C@H]1CC(c1ccccc1OC)C2 (relative stereo; 8a) [listing 2 of 2 here]	–	–	2	–	–	29	-3	–	–	–	–	–	14	35	–	–	–	–
CCCN1[C@H]2CC[C@H]1CC(c1cc(OC)c(OC)c(OC)c1)C2 (relative stereo)	20	66	0	5.6	5	8	–	100	4	99	-1	40	12	4	–	–	–	–
CCCN1C[C@H]2OC[C@@H]1C[C@H]2c1ccccc1OC	3	22	4	0.8	9	13	5	41	3	100	21	9	-6	7	–	–	–	–
CCCN1[C@H]2COC[C@H]1CC(c1ccccc1OC)C2 (relative stereo; 16) [listing 1 of 2 here]	–	–	–	–	7	–	–	35	–	–	–	–	–	–	6	17	39	3.1
CCCN1CCN(c2ccccc2OC)CC1	8	41	50	1.1	2	-1	9	63	2	100	12	16	–	99	–	–	–	–
CCCN1[C@H]2CC[C@H]1CC(c1ccc(OC)c(OC)c1)C2 (relative stereo)	36	85	6	3.4	21	11	-1	50	4	99	17	62	8	20	–	–	–	–
CCCN1[C@H]2CC[C@H]1CC(O)(c1ccccc1OC)C2 (relative stereo)	7	46	–	1.2	54	–	–	100	12	100	–	19	–	-8	–	–	–	–
CCCN1[C@H]2COC[C@H]1CC(c1ccccc1OC)C2 (relative stereo; 16) [listing 2 of 2 here]	–	–	4	–	–	34	3	–	–	–	20	–	21	11	–	–	–	–
CCCN1[C@H]2CC[C@H]1CC(c1ccccc1OC)C2 (relative stereo; 4) [listing 2 of 2 here]	–	–	–	–	6	–	–	62	–	99.7	–	–	–	–	10	25	56.5	4.1
CCCN1C[C@H]2OC[C@@H]1C[C@@H]2c1ccccc1OC	0	15	25	0.8	4	–	–	100	3	100	–	3	–	16	–	–	–	–
CCCN1C[C@H]2OC[C@@H]1C[C@]2(O)c1ccccc1OC	4	14	6	0.6	55	16	6	100	15	100	-6	5	12	3	–	–	–	–
CCCN1[C@@H]2COC[C@H]1CN(c1ccccc1OC)C2	2	12	3	0.9	18	5	3	70	4	100	3	2	9	19	–	–	–	–
